The text below walks through data of patent US10357477B2, “Anticancer compounds” (REGENTS OF THE UNIVERSITY OF MINNESOTA, priority 2016, dated 2019).

One data set deals with MIA PaCa-2 cells. In words: Cell viability assay (MTT) in MIA PaCa-2 cells. Particulars: Homo sapiens, antiproliferative activity, 72 h. It is filed as cell-based. The essentials:
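MIA PaCa-2 cells exposed 72 h at 37° C to 2-fold serial compound dilutions from 100 μM final, 0.5% DMSO, in triplicate. Viability by MTT (3 h), formazan read at 570 nm minus 650 nm; EC50 from curve fit.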

Data set [1] can be described thus: Plasma stability assay, mouse plasma. To be noted: 37° C. It is filed as in vitro ADME. The protocol: (§1) The plasma stability assay was performed in triplicate by incubating a compound in normal mouse and human plasma at 37° C. At 0, 1, 3, 6, and 24 h, aliquots of the plasma mixture were taken and quenched with 3 volumes of acetonitrile containing an appropriate internal standard. The samples were then vortexed and centrifuged at 14,000 rpm for 5 min. The supernatants were collected and analyzed by LC-MS/MS to determine the remaining percentage at various time points.
(§2) Quantification and analysis of compounds in biological samples were carried out on an AB Sciex QTrap 5500 mass spectrometer coupled with an Agilent 1260 Infinity HPLC. The chromatographic separation of compounds was achieved using a Phenomenex Kinetex C18 column (50×2.1 mm, 2.6 μm), and MS/MS analysis was conducted using an ESI ion source with MRM detection. The MS/MS detection parameters including declustering potential (DP), entrance potential (EP), collision energy (CE), and collision cell exit potential (CXP) were optimized for each compound.

Data set [2] deals with MCF10A cells (normal human mammary cells). Description: Cell viability assay (MTT) in MCF10A cells. It is filed as cell-based. To be noted: MCF-10A, 72 h. The protocol:
MCF10A cells are maintained in minimum essential medium (MEM) (Invitrogen 11095) supplemented with 10% FBS (Invitrogen 16000), 1% 10× non-essential amino acids (NEAA) (Invitrogen 11140), 1% Penicillin/Streptomycin (Invitrogen 15140), 1% GlutaMAX (Invitrogen 35050-061), 20 ng/mL EGF, […] hydrocortisone, 100 ng/mL cholera toxin, 10 μg/mL insulin.
Cells were plated in 96-well plates at 25×10^4 cells/ml. After 24 hours, compounds were added at 9, 3× dilutions in triplicate from 100 uM final concentration in the appropriate growth media. Plates were incubated for 72 hours at 37° C. in a 5% CO2/95% air humidified atmosphere after which time the media was removed and MTT was added in RPMI phenol red free media. The MTT was removed after 3 hours and formazan crystals were solubilized with 200 μL of isopropanol. Plates were read on a Molecular Devices SpectraMax i3 spectrophotometer at 570 nm for formazan and 690 nm for background subtraction. EC50 values were calculated by fitting the data in GraphPad Prism software.

The nature of data set [3]: Caco-2 permeability assay. It is filed as in vitro ADME. Particulars: human, pH 7.4; for Papp A→B at 80 min: apical to basolateral; for Papp B→A at 80 min: basolateral to apical. The protocol:
Cell Culture. The human colon adenocarcinoma cell line Caco-2 was purchased from ATCC (American Type Culture Collection, Manassas, Va.), and was cultured in a humidified atmosphere of 5% CO2 at 37° C. Caco-2 cells were cultured in DMEM with 10% FBS, 1% NEAA, 1% GlutaMax and 1% penicillin and streptomycin solution. The culture medium was changed every other day during cell growth and differentiation. On achieving 80-90% confluence, the cells were rinsed with pre-warm DPBS (pH 7.4) and split using trypsin. The cells were then seeded on membranes of Millipore Millicell-24 cell culture device. The transepithelial electrical resistance (TEER) were assessed to reflect membrane integrity using a Millicells® ERS-2 (Millipore, USA). The Caco-2 cell monolayers were used for transport experiments on day 21 post-seeding with TEER values >500 Ω·cm2. Bidirectional Transport Experiments. Before the transport experiments, the cell monolayer was washed three times with HBSS. Then, the plates were incubated in fresh permeability assay buffer (HBSS containing 10 mM glucose and 20 mM HEPES, pH 7.4) at 37° C. The experiments were conducted by spiking test compounds to either the apical (AP, 0.4 mL) or basolateral side (BL, 0.8 mL), while the receiving chamber contained the corresponding volume of pre-warmed permeability assay buffer. Every experiment was repeated in duplicate, and the plates were incubated in an orbital shaker at 37° C., 50 rpm/min. To assess the drug transport, at the incubation time of 20, 40, 60 and 80 min, aliquot was removed and was immediately replenished with an equal volume of permeability assay buffer. The samples were then subjected to LC/MS/MS analysis. The apparent permeability coefficient was indicated by the absorption rate constant Papp. It could be calculated as PBA (measured in BL to AP direction) or PAB (measured in AP to BL direction), using the equation of Papp=(dQ/dt)/(A×C0). dQ/dt is the rate at which the compound appears in the receiver chamber (nmol/s), A is the surface area of the filter membrane (0.7 cm2) and C0 is the initial concentration in the donor chamber (μM). Efflux ratio (ER) was calculated by the equation of ER=PBA/PAB, where PBA is the Papp value measured in BL to AP direction, and PAB is the Papp value measured in AP to BL direction.

Data set [4] in a line: Microsomal stability assay, mouse liver microsomes. It is filed as in vitro ADME. To be noted: pH 7.4; mouse liver microsomes 0.5 mg/mL, 1 mM NADPH, 1 μM compound; read-out: Microsomal Stability t1/2 Mouse. The protocol: (§3) The in vitro microsomal stability assay was conducted in triplicate in mouse and human liver microsomal systems. In a typical incubation, a compound (typically 1 μM final concentration) was spiked into the reaction mixture containing 0.5 mg/mL of liver microsomal protein and 1 mM of NADPH in 0.1 M potassium phosphate buffer (pH 7.4) at 37° C. At various time points, 1 volume of reaction aliquot was taken and quenched with 3 volumes of acetonitrile with an appropriate internal standard. The samples were then vortexed and centrifuged at 14,000 rpm for 5 min. The supernatants were collected and analyzed by LC-MS/MS to determine the in vitro metabolic half-life (t1/2) and intrinsic clearance (CLint). Verapamil was used as a positive control.
as §2
(In general: Microsomes from liver hold many membrane-bound enzymes, among them those of drug oxidation.)

A short description of data set [5]: Microsomal stability assay, human liver microsomes. It is filed as in vitro ADME. Particulars: pH 7.4; human liver microsomes 0.5 mg/mL, 1 mM NADPH, 1 μM compound; read-out: Microsomal Stability t1/2 Human. The protocol: as §3, §2
The nature of data set [6]: Plasma stability assay, human plasma. It is filed as in vitro ADME. Particulars: 37° C. The protocol: as §1, §2
Data set [7] is described as follows: Thermodynamic solubility assay. Particulars: aqueous buffer, thermodynamic from solid, DPBS pH=7.4, 48 h, ambient temperature. It is filed as physicochemical. The protocol: Briefly, a saturated solution was made by adding DPBS to the solid compound. The mixture was shaken at 200 rpm for 48 h in a MaxQ 6000 orbital shaker at ambient temperature to allow equilibrium between the solid and dissolved compound. The suspension was then filtered through a 0.45 μm PVDF syringe filter and the filtrate was collected for analysis using UV spectrometry (SpectraMax M5e, Molecular Devices) at λ=240 nm.

≈ marks a conversion by molar mass, not a printed value.

Broadly, the EC50 is the concentration that produces a half-maximal response. The low end stands for greater potency, the high end for weaker potency. Usually Papp A→B stands for the apparent permeability from the apical to the basolateral side of a cell layer. A low value points to slow passage. Usually Papp B→A stands for how fast a substance crosses the layer from the basolateral side. A word on the solubility: it is the concentration that dissolves in the medium under given conditions. Consider `CNC(=O)c1cccc(Cn2nc(C)c(NC(=O)c3ccc(COc4ccc(C(F)(F)F)cc4C)cc3)c2C)c1` [Compound D10, 3-((3,5-Dimethyl-4-(4-((2-methyl-4-(trifluoromethyl)phenoxy)-methyl)benzamido)-1H-pyrazol-1-yl)methyl)-N-methylbenzamide], for which the EC50 in the data set with MIA PaCa-2 cells amounted to 0.62 µM; in data set [2], 4.8 µM. Also, the “Plasma Stability (% remaining, 6 h/24 h) Mouse” value is 88% in data set [1] (6 h) and 93% in data set [1] (24 h). Besides, the Papp A→B at 80 min in data set [3] amounted to 3.72 ×10⁻⁶ cm/s. This molecule also yielded an apparent permeability from basolateral to apical (Papp B→A) at 80 min in data set [3] of 11.2 ×10⁻⁶ cm/s. Besides, the half-life at 1 μM in data set [4] and in data set [5] was 53 min each time. For the same molecule, the “Plasma Stability (% remaining, 6 h/24 h) Human” value was found to be 98% in data set [6] (6 h) and 100% in data set [6] (24 h). The molecule further showed a solubility at 48 h in data set [7] of 166 ± 2 µM (≈ 91.4 µg/mL).
As to `CC(=O)Nc1cccc(Cn2nc(C)c(NC(=O)c3ccc(COc4ccc(C(F)(F)F)cc4)cc3)c2C)c1` [Compound D11, N-(1-(3-Acetamidobenzyl)-3,5-dimethyl-1H-pyrazol-4-yl)-4-((4-(trifluoromethyl)phenoxy)methyl)benzamide], the EC50 worked out at 0.87 µM in the data set with MIA PaCa-2 cells and 8.6 µM in data set [2]. The “Plasma Stability (% remaining, 6 h/24 h) Mouse” value in data set [1] (6 h) is listed as 2.1%; in data set [1] (24 h), 0.1%. Further, the half-life at 1 μM in data set [4] was 7.4 min; in data set [5], 8.3 min. Besides, the “Plasma Stability (% remaining, 6 h/24 h) Human” value in data set [6] (6 h) is on record as 96%; in data set [6] (24 h), 94%.
Regarding `CC(=O)Nc1cccc(Cn2nc(C)c(NC(=O)c3ccc(COc4ccc(C(F)(F)F)cc4C)cc3)c2C)c1` [Compound D12, N-(1-(3-Acetamidobenzyl)-3,5-dimethyl-1H-pyrazol-4-yl)-4-((2-methyl-4-(trifluoromethyl)phenoxy)methyl)benzamide], the values for the concentration for a half-maximal effect (EC50) (with MIA PaCa-2 cells; in data set [2]) were 1.1 µM and 6.6 µM, respectively. Moreover, the “Plasma Stability (% remaining, 6 h/24 h) Mouse” value stood at 1.6% in data set [1] (6 h) and 0.1% in data set [1] (24 h). In addition, the values for the half-life at 1 μM in data set [4] and in data set [5] were 9.7 min and 14 min, respectively. The results for the “Plasma Stability (% remaining, 6 h/24 h) Human” value in data set [6] (6 h) and in data set [6] (24 h) were 92% and 95%, respectively.
`CNC(=O)c1cccc(Cn2nc(C)c(NC(=O)c3ccc(COc4ccc(C(F)(F)F)cc4)cc3)c2C)n1` [Compound E1a, 6-((3,5-Dimethyl-4-(4-((4-(trifluoromethyl)phenoxy)methyl)-benzamido)-1H-pyrazol-1-yl)methyl)-N-methylpicolinamide]: the values for the EC50 (in the data set on MIA PaCa-2 cells; in data set [2]) were 0.48 µM and 7.8 µM, respectively. Besides, the “Plasma Stability (% remaining, 6 h/24 h) Mouse” value in data set [1] (24 h) is reported as “—/99%”. The molecule further returned an apparent permeability from apical to basolateral (Papp A→B) at 80 min in data set [3] of 24.5 ×10⁻⁶ cm/s. In data set [3], this molecule showed a Papp B→A at 80 min of 21 ×10⁻⁶ cm/s. The half-life at 1 μM in data set [4] was 65 min; in data set [5], 47 min. In addition, the “Plasma Stability (% remaining, 6 h/24 h) Human” value in data set [6] (24 h) was “—/100%”.
Turning to `CNC(=O)c1cccc(Cn2nc(C)c(NC(=O)c3ccc(COc4ccc(C(F)(F)F)cc4C)cc3)c2C)n1` [Compound E1b, 6-((3,5-Dimethyl-4-(4-((2-methyl-4-(trifluoromethyl)phenoxy)methyl)benzamido)-1H-pyrazol-1-yl)methyl)-N-methylpicolinamide], the EC50 in the data set with MIA PaCa-2 cells is 6.3 µM. Also, the “Plasma Stability (% remaining, 6 h/24 h) Mouse” value in data set [1] (24 h) is “—/96%”. Also, in data set [3], the Papp A→B at 80 min is 3.58 ×10⁻⁶ cm/s and the apparent permeability from basolateral to apical (Papp B→A) at 80 min is 7.17 ×10⁻⁶ cm/s. Besides, the half-life at 1 μM in data set [4] came to 75 min. In addition, in data set [5], the half-life at 1 μM stood at 47 min. Also, the “Plasma Stability (% remaining, 6 h/24 h) Human” value in data set [6] (24 h) is listed as “—/100%”.
`CNC(=O)c1cc(Cn2nc(C)c(NC(=O)c3ccc(COc4ccc(C(F)(F)F)cc4)cc3)c2C)ccn1` [Compound E2a, 4-((3,5-Dimethyl-4-(4-((4-(trifluoromethyl)phenoxy)methyl)benzamido)-1H-pyrazol-1-yl)methyl)-N-methylpicolinamide]: the values for the EC50 (with MIA PaCa-2 cells; in data set [2]) were 0.85 µM and 8.3 µM, respectively. Besides, the “Plasma Stability (% remaining, 6 h/24 h) Mouse” value in data set [1] (24 h) is recorded as “—/91%”. In data set [3], this molecule gave an apical-to-basolateral permeability (Papp A→B) at 80 min of 5.02 ×10⁻⁶ cm/s. The basolateral-to-apical permeability (Papp B→A) at 80 min in data set [3] worked out at 5.69 ×10⁻⁶ cm/s. The half-life at 1 μM in data set [4] is 64 min; in data set [5] it was 112 min. Also, in data set [6] (24 h), the “Plasma Stability (% remaining, 6 h/24 h) Human” value is on record as “—/98%”.
On to `CNC(=O)c1cc(Cn2nc(C)c(NC(=O)c3ccc(COc4ccc(C(F)(F)F)cc4C)cc3)c2C)ccn1` [Compound E2b, 4-((3,5-Dimethyl-4-(4-((2-methyl-4-(trifluoromethyl)phenoxy)methyl)benzamido)-1H-pyrazol-1-yl)methyl)-N-methylpicolinamide], for which the EC50 worked out at 0.33 µM with MIA PaCa-2 cells and 7.4 µM in data set [2]. Moreover, the “Plasma Stability (% remaining, 6 h/24 h) Mouse” value in data set [1] (24 h) is listed as “—/84%”. Further, in data set [3], the apical-to-basolateral permeability (Papp A→B) at 80 min is 8.34 ×10⁻⁶ cm/s. The Papp B→A at 80 min in data set [3] was found to be 5.96 ×10⁻⁶ cm/s. The half-life at 1 μM in data set [4] and in data set [5] was 89 min throughout. Moreover, the “Plasma Stability (% remaining, 6 h/24 h) Human” value in data set [6] (24 h) was “—/100%”. Further, the concentration in solution in data set [7] (solubility at 48 h) came to 211 ± 5 µM (≈ 116 µg/mL).
